Reference: paper PMC4534193, “Binding of the Lactococcal Drug Dependent Transcriptional Regulator LmrR to Its Ligands and Responsive Promoter Regions” (PLoS ONE, 2015)

Biological target: T1, LmrR (Lactococcus cremoris, UniProt A2RI36)
T1 construct: gene llmg_0323; LmrR homodimer; untagged protein for the crystal (residues 1–5, 70–75 and 109–116 not modelled)
T1 sequence (A2RI36 1-116): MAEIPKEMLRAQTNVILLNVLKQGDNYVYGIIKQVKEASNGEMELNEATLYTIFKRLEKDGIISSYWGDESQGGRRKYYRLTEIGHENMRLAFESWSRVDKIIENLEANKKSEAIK
Assay: co-crystal structure ([…] Å) and riboflavin fluorescence quenching titration
Type: binding

Kd: 260 ± 80 nM
SMILES: Cc1cc2nc3c(=O)[nH]c(=O)nc-3n(C[C@H](O)[C@H](O)[C@H](O)CO)c2cc1C [RBF, riboflavin]
